Results: patent US20230346777A1, “USE OF SGC ACTIVATORS FOR THE TREATMENT OF OPHTHALMOLOGIC DISEASES” (Bayer Aktiengesellschaft, priority 2020, published 2023)
Counter-ions that a name gives are not always drawn. Like-named read-outs stand apart in the source and are kept apart here.

What was measured:
[1] = Pharmacokinetic parameters following intravenous and oral administration in rats; type: in vivo, male Wistar rats; conditions: for clearance / MRT / half-life: male, Wistar, rat, plasma; for clearance: read-out: CLplasma (converted); for MRT: read-out: MRT; for half-life: read-out: t½ (converted)
Method: (§1) B-2. Determination of Pharmacokinetic Parameters Following Intravenous and Oral Administration
(§2) The pharmacokinetic parameters of the compounds according to the invention were determined in male Wistar rats and/or in female beagles and/or in cynomolgus monkeys and/or in male CD-1 mice. Intravenous administration in the case of mice and rats was carried out by means of a species-specific plasma/DMSO formulation, and in the case of dogs and monkeys by means of a water/PEG400/ethanol formulation. In all species, oral administration of the dissolved substance was performed via gavage, based on a water/PEG400/ethanol formulation.
(§3) An internal standard (which may also be a chemically unrelated substance) was added to the samples of the compounds of the invention, calibration samples and qualifiers, and there followed protein precipitation by means of acetonitrile in excess. Addition of a buffer solution matched to the LC conditions, and subsequent vortexing, was followed by centrifugation at 1000 g. The supernatant was analysed by LC-MS/MS using C18 reversed-phase columns and variable mobile phase mixtures. The substances were quantified via the peak heights or areas from extracted ion chromatograms of specific selected ion monitoring experiments.
(§4) The plasma concentration/time plots determined were used to calculate the pharmacokinetic parameters such as AUC, Cmax, t1/2 (terminal half-life), F (bioavailability), MRT (mean residence time) and CL (clearance), by means of a validated pharmacokinetic calculation program.
(§5) Since the substance quantification was performed in plasma, it was necessary to determine the blood/plasma distribution of the substance in order to be able to adjust the pharmacokinetic parameters correspondingly.
(§6) For this purpose, a defined amount of substance was incubated in K3 EDTA whole blood of the species in question in a rocking roller mixer for 20 min. After centrifugation at 1000 g, the plasma concentration was measured (by means of LC-MS/MS; see above) and determined by calculating the ratio of the Cblood/Cplasma value.

[2] = Pharmacokinetic parameters following intravenous and oral administration in dogs; type: in vivo, female beagles; conditions: for MRT / clearance / half-life: female, beagle, dog, plasma; for clearance: read-out: CLplasma (converted); for half-life: read-out: t½ (converted)
Method: as §1, §2, §3, §4, §5, §6

[3] = biological target: T1, recombinant guanylate cyclase reporter cell line (Rattus norvegicus, UniProt P20595); experiment: Effect on a recombinant guanylate cyclase reporter cell line; type: cell-based
T1 construct: expressed in transfected cells; CHO by own knowledge of the cited Wunder et al. 2005
T1 sequence (P20595 1-619): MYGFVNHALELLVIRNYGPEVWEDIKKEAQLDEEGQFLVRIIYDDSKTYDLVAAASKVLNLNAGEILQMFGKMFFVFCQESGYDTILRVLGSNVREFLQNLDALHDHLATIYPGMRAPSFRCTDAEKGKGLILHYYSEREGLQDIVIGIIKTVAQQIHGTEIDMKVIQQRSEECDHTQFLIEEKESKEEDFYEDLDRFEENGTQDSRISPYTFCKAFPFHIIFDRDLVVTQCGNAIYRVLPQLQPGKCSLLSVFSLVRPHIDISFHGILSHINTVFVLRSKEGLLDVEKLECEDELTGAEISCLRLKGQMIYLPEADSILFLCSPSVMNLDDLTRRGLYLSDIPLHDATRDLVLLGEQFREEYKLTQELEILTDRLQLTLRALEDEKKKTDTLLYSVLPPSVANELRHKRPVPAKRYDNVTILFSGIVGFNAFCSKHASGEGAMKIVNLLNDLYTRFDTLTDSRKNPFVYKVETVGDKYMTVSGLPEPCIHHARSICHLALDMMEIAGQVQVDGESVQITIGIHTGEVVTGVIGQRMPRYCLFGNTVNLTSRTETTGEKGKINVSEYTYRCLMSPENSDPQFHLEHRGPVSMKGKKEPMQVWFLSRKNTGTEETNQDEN
T1 sequence (P19686 1-690 partner): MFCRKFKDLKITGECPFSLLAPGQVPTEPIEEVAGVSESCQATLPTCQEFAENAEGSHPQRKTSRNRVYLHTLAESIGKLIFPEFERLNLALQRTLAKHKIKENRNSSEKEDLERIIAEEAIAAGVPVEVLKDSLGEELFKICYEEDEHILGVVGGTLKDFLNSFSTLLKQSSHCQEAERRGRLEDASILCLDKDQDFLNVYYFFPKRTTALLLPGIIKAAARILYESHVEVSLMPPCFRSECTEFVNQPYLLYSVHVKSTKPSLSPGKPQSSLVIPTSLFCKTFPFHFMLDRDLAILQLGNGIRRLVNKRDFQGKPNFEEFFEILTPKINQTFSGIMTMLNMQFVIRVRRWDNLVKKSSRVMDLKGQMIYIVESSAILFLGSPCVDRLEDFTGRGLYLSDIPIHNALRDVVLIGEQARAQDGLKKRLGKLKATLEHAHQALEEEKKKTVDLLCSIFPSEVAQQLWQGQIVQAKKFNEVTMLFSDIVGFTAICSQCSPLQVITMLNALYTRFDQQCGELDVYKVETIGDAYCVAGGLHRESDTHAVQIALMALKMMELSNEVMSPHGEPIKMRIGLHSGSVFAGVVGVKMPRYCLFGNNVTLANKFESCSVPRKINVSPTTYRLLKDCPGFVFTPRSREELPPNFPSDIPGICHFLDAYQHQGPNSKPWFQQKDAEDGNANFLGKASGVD
Method: B-1. Effect on a Recombinant Guanylate Cyclase Reporter Cell Line
The cellular activity of the compounds according to the invention was determined using a recombinant guanylate cyclase reporter cell line, as described in F. Wunder et al., Anal. Biochem. 339, 104-112 (2005).

[4] = intravenous administration (i.v.)

Compound | AUCnorm ([1]; intravenous administration) | clearance ([1]; iv, intravenous administration) | MRT ([1]; iv, intravenous administration) | half-life ([1]; iv, intravenous administration) | MRT ([1]; po, oral administration (p.o.)) | half-life ([1]; po, oral administration (p.o.)) | AUCnorm ([1]; oral administration (p.o.)) | F ([1]; oral administration (p.o.)) | MRT [2, 4] | clearance [2, 4] | half-life [2, 4] | MRT ([2]; oral administration (p.o.)) | half-life ([2]; oral administration (p.o.)) | AUCnorm [2, 4] | AUCnorm ([2]; oral administration (p.o.)) | F ([2]; oral administration (p.o.)) | EC50 [3] | MEC (minimum effective concentration) [3] | MEC (minimum effective concentration) ([3]; hydrochloride)
CC(C)CN1CCN(c2ccc(-c3ccc(Cl)cc3N3CCC[C@@H](n4ncc(C(=O)O)c4C(F)F)C3)cc2)CC1 (single isomer, unassigned) [Example 2, 1-[1-{4-Chloro-4′-[4-(2-methylpropyl)piperazin-1-yl][1,1′-biphenyl]-2-yl}piperidin-3-yl]-5-(difluoromethyl)-1H-pyrazole-4-carboxylic acid] | 7.08 kg·h/L | 2.33 mL/min/kg | 3.44 h | 188 min | 6.23 h | 238 min | 3.77 kg·h/L | 53.3% | 25.6 h | 0.167 mL/min/kg | 1060 min | 21.3 h | 840 min | 81.7 kg·h/L | 67.7 kg·h/L | 82.8% | 8.6 nM | 1.0 nM | 
CC(C)CN1CCN(c2ccc(-c3ccc(Cl)cc3N3CCCC(n4ncc(C(=O)O)c4C(F)(F)F)C3)cc2)CC1 (single isomer, unassigned) [Example 9, 1-[1-{4-chloro-4′-[4-(2-methylpropyl)piperazin-1-yl][1,1′-biphenyl]-2-yl}piperidin-3-yl]-5-(trifluoromethyl)-1H-pyrazole-4-carboxylic acid hydrochloride] | 5.48 kg·h/L | 3 mL/min/kg | 5.83 h | 246 min | 8.51 h | 298 min | 4.50 kg·h/L | 82.1% | 10.3 h | 0.5 mL/min/kg | 472 min | 13.7 h | 557 min | 37.4 kg·h/L | 31.7 kg·h/L | 84.8% | 11 nM |  | 2.2 nM
